Legend:
RAW264.7 cells = experiment: WST-1 cell viability, RAW264.7; type: cell-based; details: Mus musculus
Procedure: Inhibition of IFNγ-induced NO production by AIMs is Nrf2-dependent (Dinkova-Kostova, 2005). […] Nitrite (NO2^−) levels in the media were measured as a surrogate for nitric oxide using the Griess reagent assay. Cell viability was assessed using the WST-1 assay. […] 63170, 63171, 63179, and 63189 are compounds of the formulas: […]

Nrf2 target genes = experiment: Nrf2 target gene expression in HFL1 lung fibroblasts (quantitative PCR); type: cell-based, human; details: 18 hours
glutathione levels = experiment: induction of glutathione levels, RAW264.7 mouse model; type: cell-based
From the text: Glutathione and NADPH are critical factors required for the maintenance of cellular redox capacity. […] Data shown are representative of two independent experiments.

H6PD, PGD, TKT, ME1 mRNA = experiment: expression of genes involved in NADPH synthesis, HCT-116 cells; type: cell-based; details: 24 hours
C2C12 muscle cells = experiment: glycolytic intermediates in C2C12 myotubes; type: cell-based, rodent
[1] = tested on: cigarette smoke-induced COPD; experiment: cigarette smoke-induced COPD in mice; type: in vivo, mouse
Procedure: At the end of the study, lung tissue and BALF were collected for analysis of inflammatory infiltrates and cytokines. […] An AIM analog (63355) was tested in the same study for comparison. 63355 is a compound of the formula: […]

LPS-induced sepsis = details: mouse, in vivo
CD rats = experiment: neurobehavioral evaluation in rats (FOB); type: in vivo, rat
Procedure: One additional group of 10 animals/sex served as the control and received vehicle (sesame oil).
Observations for morbidity, mortality, injury, and availability of food and water were conducted twice daily for all animals. Observations for clinical signs were conducted prior to dosing on Day 1 and following each functional observational battery (FOB) evaluation. FOB evaluations were conducted pre-dose (Day −1) and at approximately 4 and 24 hours post-dose. Body weights were measured and recorded pre-dose on Day 1.

CYP1A2 = experiment: CYP450 induction in cultured human hepatocytes: CYP1A2; type: in vitro ADME; details: up to 3 μM
[2] = tested on: fractionated radiation dermatitis; experiment: fractionated radiation dermatitis model, Balb/c mice; type: in vivo, mouse; details: 0.1 to 1% topical formulations
Procedure: The mice were irradiated on days 0-2 and 5-7 with six 10-Gy doses […]. Clinical dermatitis scores for the mice were evaluated blindly every two days from day 4 until the end of the study. […] Study and treatment parameters can be found in Table 6.
By analyzing the average clinical scores that were shown in FIG. 43, an area under the curve (AUC) analysis was performed, which yielded the severity of the dermatitis relative to how long the dermatitis persisted.

ocular inflammation = ocular inflammation after paracentesis in rabbits; type: in vivo, rabbit; details: 0.01% RTA 408 in the formulation
Procedure: Each rabbit was given three instillations within 60 minutes before induction of paracentesis and two instillations within 30 minutes after induction of paracentesis. Each instillation was 50 μL and given in both eyes. Aqueous humor for 6 animals per time-point was collected 30 minutes and again 2 hours after induction of paracentesis. The amount of inflammation was determined by protein concentration in the aqueous humor.

NQO1 = NQO1 activity in mouse tissues, 25 mg/kg PO QD×3; type: in vivo
[3] = tested on: LPS-induced pulmonary inflammation
[4] = tested on: genotoxicity (micronucleated polychromatic erythrocytes); experiment: in vivo micronucleus study
[5] = metabolism in human liver microsomes
[6] = metabolism in monkey liver microsomes; details: 60-minute incubation, NADPH and UGT
[7] = mouse tissue distribution, 25 mg/kg PO QD×3
[8] = tested on: radiation-induced oral mucositis; experiment: radiation-induced oral mucositis in hamsters

In the case of `CC1(C)CC[C@]2(NC(=O)C(C)(F)F)CC[C@]3(C)[C@H](C(=O)C=C4[C@@]5(C)C=C(C#N)C(=O)C(C)(C)[C@@H]5CC[C@]43C)[C@@H]2C1` [RTA 408, N-((4aS,6aR,6bS,8aR,12aS,14aR,14bS)-11-cyano-2,2,6a,6b,9,9,12a-heptamethyl-10,14-dioxo-1,2,3,4,4a,5,6,6a,6b,7,8,8a,9,10,12a,14,14a,14b-octadecahydropicen-4a-yl)-2,2-difluoropropanamide], the IC50 (RAW264.7 cells) is reported as 125 nM, the “concentration at which induction of NQO1, HMOX1, GCLM, TXNRD1 is evident” value (Nrf2 target genes) is reported as at most 15.6 nM and the EC50 (glutathione levels) is reported as 9.9 nM. The “mRNA levels of H6PD, PGD, TKT, ME1” value (H6PD, PGD, TKT, ME1 mRNA) was “dose-dependent increase in expression of genes involved in NADPH synthesis”, the intracellular pyruvate levels (C2C12 muscle cells; 250 nM or 500 nM, 18 hours, P<0.0001) was “increased intracellular pyruvate levels” and the “intracellular and extracellular lactate levels” value (C2C12 muscle cells; 1 μM or 2 μM, 3 hours) was “significantly increased intracellular and extracellular lactate levels”. The “lung Txnrd enzyme activity” value ([1]; 30 mg/kg) was “induced”, the “pro-inflammatory cytokines including KC and TNFα” value ([1]; doses as low as 3 mg/kg, two weeks) was “significant suppression of pro-inflammatory cytokines” and the “lung Gsr enzyme activity” value ([1]; mouse, in vivo) was “not altered”. For the same compound, the “lung Gst enzyme activity” value ([1]; mouse, in vivo) was “decreased with treatment”, the “lung NQO1 enzyme activity decreased by cigarette smoke” value ([1]; mouse, in vivo) was “rescued this loss” and the “survival, systemic LPS” value (LPS-induced sepsis) was “improved survival”. For the same compound, the “body weight gain approximately 24 hours after dosing” value (CD rats; 30 mg/kg) was “Slight decreases in body weight gain”, the basic neurobehavioral endpoints (CD rats; doses up to and including 30 mg/kg, single oral dose) was “did not produce any adverse effects” and the “induction of enzyme activity” value (CYP1A2) was “not an inducer”. For the same compound, the “average clinical dermatitis scores over time” value [2] was “statistically significant improvement in the scores”, the “aqueous humor protein concentration” value (ocular inflammation) was “reduction in aqueous humor protein similar to that of the highest concentration of any of the other reference compounds” and the “activation of NQO1 in multiple tissues” value (NQO1) was “Meaningful activation of NQO1”. The “TNFα in BALF” value ([3]; 10 mg/kg) was “Significant reductions”, the “IL-12p40, TNFα, and RANTES in BALF” value ([3]; 30 mg/kg) was “significant reductions” and the “lung NQO1 enzyme activity and total GSH” value ([3]; 10 and 30 mg/kg) was “significant induction of NQO1 enzyme activity and increases in total GSH”. For the same compound, the “Change from Control (%)” value ([4]; 125 mg/kg, 24-h timepoint) was −8%, the “Number of MPCE/1000 PCE (Mean +/− SD)” value ([4]; 125 mg/kg, 24-h timepoint) was 0.3 ± 0.27 and the “Number of MPCE/PCE Scored” value ([4]; 125 mg/kg, 24-h timepoint) was 3/10000. For the same compound, the “PCE/Total Erythrocytes (Mean +/− SD)” value ([4]; 125 mg/kg, 24-h timepoint) was 0.543 ± 0.03, the “Change from Control (%)” value ([4]; 125 mg/kg, 48-h timepoint) was −14% and the “Number of MPCE/1000 PCE (Mean +/− SD)” value ([4]; 125 mg/kg, 48-h timepoint) was 0.2 ± 0.27. For the same compound, the “Number of MPCE/PCE Scored” value ([4]; 125 mg/kg, 48-h timepoint) was 2/10000, the “PCE/Total Erythrocytes (Mean +/− SD)” value ([4]; 125 mg/kg, 48-h timepoint) was 0.453 ± 0.03 and the “Change from Control (%)” value ([4]; 250 mg/kg, 24-h timepoint) was −12%. For the same compound, the “Number of MPCE/1000 PCE (Mean +/− SD)” value ([4]; 250 mg/kg, 24-h timepoint) was 0.3 ± 0.27, the “Number of MPCE/PCE Scored” value ([4]; 250 mg/kg, 24-h timepoint) was 3/10000 and the “PCE/Total Erythrocytes (Mean +/− SD)” value ([4]; 250 mg/kg, 24-h timepoint) was 0.520 ± 0.06. The “Change from Control (%)” value ([4]; 250 mg/kg, 48-h timepoint) was −26%, the “Number of MPCE/1000 PCE (Mean +/− SD)” value ([4]; 250 mg/kg, 48-h timepoint) was 0.2 ± 0.27 and the “Number of MPCE/PCE Scored” value ([4]; 250 mg/kg, 48-h timepoint) was 2/10000. The “PCE/Total Erythrocytes (Mean +/− SD)” value ([4]; 250 mg/kg, 48-h timepoint) was 0.391 ± 0.02, the “Change from Control (%)” value ([4]; 500 mg/kg, 24-h timepoint) was −28% and the “Number of MPCE/1000 PCE (Mean +/− SD)” value ([4]; 500 mg/kg, 24-h timepoint) was 0.0 ± 0.00. For the same compound, the “Number of MPCE/PCE Scored” value ([4]; 500 mg/kg, 24-h timepoint) was 0/10000, the “PCE/Total Erythrocytes (Mean +/− SD)” value ([4]; 500 mg/kg, 24-h timepoint) was 0.426 ± 0.07 and the “Change from Control (%)” value ([4]; 500 mg/kg, 48-h timepoint) was −36%. The “Number of MPCE/1000 PCE (Mean +/− SD)” value ([4]; 500 mg/kg, 48-h timepoint) was 0.3 ± 0.45, the “Number of MPCE/PCE Scored” value ([4]; 500 mg/kg, 48-h timepoint) was 3/10000 and the “PCE/Total Erythrocytes (Mean +/− SD)” value ([4]; 500 mg/kg, 48-h timepoint) was 0.339 ± 0.05. For the same compound, the “Change from Control (%)” value ([4]; 1000 mg/kg, 24-h timepoint) was −15%, the “Number of MPCE/1000 PCE (Mean +/− SD)” value ([4]; 1000 mg/kg, 24-h timepoint) was 0.2 ± 0.27 and the “Number of MPCE/PCE Scored” value ([4]; 1000 mg/kg, 24-h timepoint) was 2/10000. For the same compound, the “PCE/Total Erythrocytes (Mean +/− SD)” value ([4]; 1000 mg/kg, 24-h timepoint) was 0.498 ± 0.05, the “Change from Control (%)” value ([4]; 1000 mg/kg, 48-h timepoint) was −35% and the “Number of MPCE/1000 PCE (Mean +/− SD)” value ([4]; 1000 mg/kg, 48-h timepoint) was 0.1 ± 0.22. For the same compound, the “Number of MPCE/PCE Scored” value ([4]; 1000 mg/kg, 48-h timepoint) was 1/10000, the “PCE/Total Erythrocytes (Mean +/− SD)” value ([4]; 1000 mg/kg, 48-h timepoint) was 0.344 ± 0.04 and the “Change from Control (%)” value ([4]; 1500 mg/kg, 24-h timepoint) was −15%. The “Number of MPCE/1000 PCE (Mean +/− SD)” value ([4]; 1500 mg/kg, 24-h timepoint) was 0.4 ± 0.22, the “Number of MPCE/PCE Scored” value ([4]; 1500 mg/kg, 24-h timepoint) was 4/10000 and the “PCE/Total Erythrocytes (Mean +/− SD)” value ([4]; 1500 mg/kg, 24-h timepoint) was 0.499 ± 0.06. For the same compound, the “Change from Control (%)” value ([4]; 1500 mg/kg, 48-h timepoint) was −39%, the “Number of MPCE/1000 PCE (Mean +/− SD)” value ([4]; 1500 mg/kg, 48-h timepoint) was 0.4 ± 0.42 and the “Number of MPCE/PCE Scored” value ([4]; 1500 mg/kg, 48-h timepoint) was 4/10000. The “PCE/Total Erythrocytes (Mean +/− SD)” value ([4]; 1500 mg/kg, 48-h timepoint) was 0.376 ± 0.05, the “Change from Control (%)” value ([4]; 2000 mg/kg, 24-h timepoint) was −10% and the “Number of MPCE/1000 PCE (Mean +/− SD)” value ([4]; 2000 mg/kg, 24-h timepoint) was 0.2 ± 0.27. The “Number of MPCE/PCE Scored” value ([4]; 2000 mg/kg, 24-h timepoint) was 2/10000, the “PCE/Total Erythrocytes (Mean +/− SD)” value ([4]; 2000 mg/kg, 24-h timepoint) was 0.531 ± 0.05 and the “Change from Control (%)” value ([4]; 2000 mg/kg, 48-h timepoint) was −32%. For the same compound, the “Number of MPCE/1000 PCE (Mean +/− SD)” value ([4]; 2000 mg/kg, 48-h timepoint) was 0.1 ± 0.22, the “Number of MPCE/PCE Scored” value ([4]; 2000 mg/kg, 48-h timepoint) was 1/10000 and the “PCE/Total Erythrocytes (Mean +/− SD)” value ([4]; 2000 mg/kg, 48-h timepoint) was 0.360 ± 0.03. The “genotoxicity in the in vivo micronucleus study” value ([4]; 125-2000 mg/kg) was 63415 is Negative for Genotoxicity, the unique human metabolites [5] was “No unique human metabolites” and the parent molecule remaining ([5]; 60-minute incubation, NADPH and UGT) was under 10%. For the same compound, the parent molecule remaining [6] was under 10%, the “levels in the CNS” value [7] was “Notable levels were observed in the CNS” and the “hamsters euthanized on Day 2 due to weight loss in excess of 20%” value ([8]; 100 mg/kg) was “two out of eight”. The “duration of ulcerative mucositis” value ([8]; 30 and 100 mg/kg) was “significant reduction” and the “percentage of animals with mucositis scores ≥3” value ([8]; hamster, in vivo) was “dose-dependent decrease”.

Source: patent US11873320B2 (REATA PHARMACEUTICALS HOLDINGS, LLC, priority 2013, dated 2024)
